# Laboratory results from ChEMBL document CHEMBL1201862, “PubChem BioAssay data set” (2004).
#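 These data come from cells grown in 96-well plates and exposed to compound for 48 hours at five concentrations. At the GI50, growth is halved.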 The source made the active and inactive calls. Rule as the data show it: active = GI50 up to about 1.1 µM and inactive = higher.
# Key:
# Assay in all cases: NCI tumour cell line growth inhibition, 48 h
# 786-0 = test system: 786-0
# A498 = test system: A498
# A549 = test system: A549
# ACHN = test system: ACHN
# CAKI-1 = test system: CAKI-1
# CCRF-CEM = test system: CCRF-CEM
# COLO 205 = test system: COLO 205
# DLD-1 = test system: DLD-1
# DMS-273 = test system: DMS-273
# EKVX = test system: EKVX
# HCC 2998 = test system: HCC 2998
# HCT-116 = test system: HCT-116
# HCT-15 = test system: HCT-15
# HL-60 = test system: HL-60
# HOP-18 = test system: HOP-18
# HOP-62 = test system: HOP-62
# HOP-92 = test system: HOP-92
# HT-29 = test system: HT-29
# IGROV-1 = test system: IGROV-1
# K562 = test system: K562
# KM-20L2 = test system: KM-20L2
# KM12 = test system: KM12
# LOX IMVI = test system: LOX IMVI
# LXFL 529 = test system: LXFL 529
# M14 = test system: M14
# M19-MEL = test system: M19-MEL
# MOLT-4 = test system: MOLT-4
# Malme-3M = test system: Malme-3M
# NCI-H226 = test system: NCI-H226
# NCI-H23 = test system: NCI-H23
# NCI-H460 = test system: NCI-H460
# OVCAR-3 = test system: OVCAR-3
# OVCAR-4 = test system: OVCAR-4
# OVCAR-5 = test system: OVCAR-5
# OVCAR-8 = test system: OVCAR-8
# RPMI-8226 = test system: RPMI-8226
# RXF 393 = test system: RXF 393
# RXF 631 = test system: RXF 631
# SF-295 = test system: SF-295
# SF-539 = test system: SF-539
# SK-MEL-2 = test system: SK-MEL-2
# SK-MEL-5 = test system: SK-MEL-5
# SK-OV-3 = test system: SK-OV-3
# SN12C = test system: SN12C
# SNB-75 = test system: SNB-75
# SNB-78 = test system: SNB-78
# SR = test system: SR
# SW-620 = test system: SW-620
# TK-10 = test system: TK-10
# U-251 = test system: U-251
# UACC-257 = test system: UACC-257
# UACC-62 = test system: UACC-62
# UO-31 = test system: UO-31
# XF498 = test system: XF498
compound,measurement,setting,value
C/C(=N\NC(N)=S)c1ccc(C)cc1C,GI50,786-0,> 100 µM (inactive)
same,GI50,A498,> 100 µM (inactive)
same,GI50,A549,53.5 µM (inactive)
same,GI50,ACHN,> 100 µM (inactive)
same,GI50,CAKI-1,> 100 µM (inactive)
same,GI50,CCRF-CEM,> 100 µM (inactive)
same,GI50,COLO 205,55.8 µM (inactive)
same,GI50,DLD-1,56.8 µM (inactive)
same,GI50,DMS-273,> 100 µM (inactive)
same,GI50,EKVX,8.41 µM (inactive)
same,GI50,HCC 2998,> 100 µM (inactive)
same,GI50,HCT-116,> 100 µM (inactive)
same,GI50,HCT-15,> 100 µM
same,GI50,HL-60,36 µM (inactive)
same,GI50,HOP-18,> 100 µM (inactive)
same,GI50,HOP-62,> 100 µM (inactive)
same,GI50,HOP-92,> 100 µM (inactive)
same,GI50,HT-29,28.6 µM (inactive)
same,GI50,IGROV-1,48.8 µM (inactive)
same,GI50,K562,81.5 µM (inactive)
same,GI50,KM-20L2,> 100 µM (inactive)
same,GI50,KM12,60.8 µM (inactive)
same,GI50,LOX IMVI,> 100 µM (inactive)
same,GI50,LXFL 529,39.1 µM (inactive)
same,GI50,M14,> 100 µM (inactive)
same,GI50,M19-MEL,36.9 µM (inactive)
same,GI50,MOLT-4,41.8 µM (inactive)
same,GI50,Malme-3M,> 100 µM (inactive)
same,GI50,NCI-H226,> 100 µM (inactive)
same,GI50,NCI-H23,> 100 µM (inactive)
same,GI50,NCI-H460,64.7 µM (inactive)
same,GI50,OVCAR-3,75.7 µM (inactive)
same,GI50,OVCAR-4,84.5 µM (inactive)
same,GI50,OVCAR-5,27 µM (inactive)
same,GI50,OVCAR-8,> 100 µM (inactive)
same,GI50,RPMI-8226,> 100 µM (inactive)
same,GI50,RXF 393,8.2 µM (inactive)
same,GI50,RXF 631,91 µM (inactive)
same,GI50,SF-295,> 100 µM (inactive)
same,GI50,SF-539,> 100 µM (inactive)
same,GI50,SK-MEL-2,37.2 µM (inactive)
same,GI50,SK-MEL-5,21.7 µM (inactive)
same,GI50,SK-OV-3,> 100 µM (inactive)
same,GI50,SN12C,> 100 µM (inactive)
same,GI50,SNB-75,47.5 µM (inactive)
same,GI50,SNB-78,> 100 µM (inactive)
same,GI50,SR,< 0.01 µM (active)
same,GI50,SW-620,> 100 µM (inactive)
same,GI50,TK-10,> 100 µM (inactive)
same,GI50,U-251,> 100 µM (inactive)
same,GI50,UACC-257,38.4 µM (inactive)
same,GI50,UACC-62,38.9 µM (inactive)
same,GI50,UO-31,82.6 µM (inactive)
same,GI50,XF498,43.1 µM (inactive)
